According to patent US11254668B2, “Pyrazolo[1,5-A]pyrazin-4-yl and related derivatives” (Pfizer Inc., priority 2017, dated 2022):
Like-named read-outs stand apart in the source and are kept apart here.

Tests used:
Assay type in all cases: biochemical
[1] = molecular target: TYK2 (Homo sapiens (Human), UniProt P29597); assay: JAK Caliper Enzyme Assay at 1 mM ATP, TYK2
Procedure, shortened: (§1)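 Read-out is Caliper LabChip mobility-shift separation of phosphorylated from unphosphorylated fluorescent peptide after EDTA termination. Each JAK kinase domain (human, recombinant) runs at 1 mM ATP at room temperature, adjusted for 20–30% turnover. Inhibition is normalized to DMSO and positive-control wells and plotted against concentration.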

[2] = molecular target: JAK2 (Homo sapiens (Human), UniProt O60674); assay: JAK Caliper Enzyme Assay at 1 mM ATP, JAK2
Procedure, shortened: as §1

[3] = molecular target: JAK3 (Homo sapiens (Human), UniProt P52333); assay: JAK Caliper Enzyme Assay at 1 mM ATP, JAK3
Procedure, shortened: (§2)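 IC50 (nM) derived from percent conversion of fluorescently labelled peptide, measured by Caliper LabChip mobility-shift separation after EDTA stop. Each JAK family kinase domain (human, recombinant) run at 1 mM ATP and room temperature, conditions set to 20-30% product; DMSO wells define uninhibited baseline.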

[4] = molecular target: JAK1 (Homo sapiens (Human), UniProt P23458); assay: JAK Caliper Enzyme Assay at 1 mM ATP, JAK1
Procedure, shortened: as §2

Chain of JAK1 (P23458 875-1153): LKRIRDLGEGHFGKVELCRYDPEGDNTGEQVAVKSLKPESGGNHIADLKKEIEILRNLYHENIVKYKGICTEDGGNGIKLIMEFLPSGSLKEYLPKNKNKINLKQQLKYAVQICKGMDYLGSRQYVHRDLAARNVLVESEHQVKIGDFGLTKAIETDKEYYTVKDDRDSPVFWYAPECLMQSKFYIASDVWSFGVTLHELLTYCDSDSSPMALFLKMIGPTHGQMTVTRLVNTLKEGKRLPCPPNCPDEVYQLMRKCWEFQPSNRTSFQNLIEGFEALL
Chain of JAK2 (O60674 849-1124): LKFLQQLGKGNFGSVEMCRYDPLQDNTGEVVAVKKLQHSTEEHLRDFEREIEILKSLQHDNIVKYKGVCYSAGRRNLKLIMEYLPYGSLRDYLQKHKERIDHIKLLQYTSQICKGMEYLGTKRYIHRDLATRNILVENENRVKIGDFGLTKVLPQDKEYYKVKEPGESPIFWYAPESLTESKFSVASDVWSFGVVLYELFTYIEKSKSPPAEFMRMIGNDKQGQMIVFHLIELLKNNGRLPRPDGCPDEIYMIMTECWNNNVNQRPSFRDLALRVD
Chain of TYK2 (P29597 897-1176): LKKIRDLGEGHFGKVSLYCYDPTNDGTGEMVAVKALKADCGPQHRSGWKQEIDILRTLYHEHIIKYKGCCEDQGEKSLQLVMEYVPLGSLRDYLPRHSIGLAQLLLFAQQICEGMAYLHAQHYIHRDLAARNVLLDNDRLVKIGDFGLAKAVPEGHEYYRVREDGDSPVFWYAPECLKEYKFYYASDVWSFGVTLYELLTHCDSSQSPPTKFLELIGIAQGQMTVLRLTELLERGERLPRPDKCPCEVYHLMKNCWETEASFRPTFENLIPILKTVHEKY
Chain of JAK3 (P52333 822-1111): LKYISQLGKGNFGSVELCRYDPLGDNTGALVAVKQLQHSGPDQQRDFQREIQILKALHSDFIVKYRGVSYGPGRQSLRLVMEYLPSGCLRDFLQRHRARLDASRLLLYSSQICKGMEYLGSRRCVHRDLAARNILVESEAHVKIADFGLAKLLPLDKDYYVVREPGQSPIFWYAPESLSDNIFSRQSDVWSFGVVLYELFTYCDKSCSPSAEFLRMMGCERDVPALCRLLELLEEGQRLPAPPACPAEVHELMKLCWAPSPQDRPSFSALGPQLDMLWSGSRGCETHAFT

SMILES | IC50 [1] [nM] | IC50 [2] [nM] | IC50 [3] [µM] | IC50 [4] [µM] | IC50 ([1]; JAK Caliper enzyme assay) [nM] | IC50 ([2]; JAK Caliper enzyme assay) [nM] | IC50 ([3]; JAK Caliper enzyme assay) [µM] | IC50 ([4]; JAK Caliper enzyme assay) [µM]
CS(=O)(=O)N1CC(CC#N)(n2ccc(-c3nc(-c4ccn(C5COC5)n4)cc4ncccc34)n2)C1 [Example 56, [1-(methylsulfonyl)-3-(3-{7-[1-(oxetan-3-yl)-1H-pyrazol-3-yl]-1,6-naphthyridin-5-yl}-1H-pyrazol-1-yl)azetidin-3-yl]acetonitrile] | 225 | 1480 | > 10 | > 10 |  |  |  | 
N#CC[C@]1(n2ncc(-c3cc(-c4cc(CO)[nH]n4)cc4ncccc34)n2)C[C@H](C#N)C1 [Example 308, trans-3-(cyanomethyl)-3-(4-{7-[5-(hydroxymethyl)-1H-pyrazol-3-yl]quinolin-5-yl}-2H-1,2,3-triazol-2-yl)cyclobutanecarbonitrile] | 18 | 131 | > 10 | 0.719 |  |  |  | 
CS(=O)(=O)N1CC(CC#N)(n2cnc(-c3cc(-c4cn[nH]c4)cc4ncccc34)n2)C1 [Example 453, [1-(methylsulfonyl)-3-{3-[7-(1H-pyrazol-4-yl)quinolin-5-yl]-1H-1,2,4-triazol-1-yl}azetidin-3-yl]acetonitrile] |  |  |  |  | 259 | 3180 | > 10 | 8.3
N#CC[C@]1(n2ccc(-c3nc(-c4ccc(O)c(C(N)=O)n4)cc4ncccc34)n2)C[C@H](C#N)C1 [Example 227, 6-(5-{1-[cis-3-cyano-1-(cyanomethyl)cyclobutyl]-1H-pyrazol-3-yl}-1,6-naphthyridin-7-yl)-3-hydroxypyridine-2-carboxamide] | 1180 | 9300 | > 10 | > 10 |  |  |  | 
CCCS(=O)(=O)N1CC(CC#N)(n2ccc(-c3nc(-c4cnn(C)c4)cc4ncccc34)n2)C1 [Example 106, [3-{3-[7-(1-methyl-1H-pyrazol-4-yl)-1,6-naphthyridin-5-yl]-1H-pyrazol-1-yl}-1-(propylsulfonyl)azetidin-3-yl]acetonitrile] | 138 | 895 | > 10 | 5.4 |  |  |  | 
CS(=O)(=O)N1CC(CC#N)(n2ccc(-c3nc(-c4ccccc4O)cc4ncccc34)n2)C1 [Example 252, [3-{3-[7-(2-hydroxyphenyl)-1,6-naphthyridin-5-yl]-1H-pyrazol-1-yl}-1-(methylsulfonyl)azetidin-3-yl]acetonitrile] | 15 | 118 | > 10 | 0.663 |  |  |  | 
Cn1cc(-c2cc(-c3cnn([C@]4(CC#N)C[C@@H](C#N)C4)n3)c3cccnc3c2)nn1 [Example 339, trans-3-(cyanomethyl)-3-{4-[7-(1-methyl-1H-1,2,3-triazol-4-yl)quinolin-5-yl]-2H-1,2,3-triazol-2-yl}cyclobutanecarbonitrile] | 36 | 146 | > 10 | 8.37 |  |  |  | 
Cn1ccc(-c2cc3ncccc3c(-c3ccn(C4(CC#N)CN(CC(F)(F)F)C4)n3)n2)n1 [Example 55, [3-{3-[7-(1-methyl-1H-pyrazol-3-yl)-1,6-naphthyridin-5-yl]-1H-pyrazol-1-yl}-1-(2,2,2-trifluoroethyl)azetidin-3-yl]acetonitrile] | 156 | 2560 | > 10 | 8.87 |  |  |  | 
Cc1cc(-c2nc(-c3cc[nH]n3)cc3ncccc23)nn1[C@]1(CC#N)C[C@H](C#N)C1 [Example 268, cis-3-(cyanomethyl)-3-{5-methyl-3-[7-(1H-pyrazol-3-yl)-1,6-naphthyridin-5-yl]-1H-pyrazol-1-yl}cyclobutanecarbonitrile] | 8 | 33 | 7.79 | 0.081 |  |  |  | 
N#CCC1(n2ccc(-c3nc(-c4ccn[nH]4)cc4ncccc34)n2)CN(S(=O)(=O)C2COC2)C1 [Example 19, [1-(oxetan-3-ylsulfonyl)-3-{3-[7-(1H-pyrazol-5-yl)-1,6-naphthyridin-5-yl]-1H-pyrazol-1-yl}azetidin-3-yl]acetonitrile] | 26 | 188 | 9.91 | 0.175 |  |  |  | 
CS(=O)(=O)N1CC(CC#N)(n2ncc(-c3cc(-c4cc(F)ccc4O)cc4ncccc34)n2)C1 [Example 442] |  |  |  |  | 7540 | > 10000 | > 10 | > 10
Cn1nccc1-c1cc(-c2cnn(C3(CC#N)CN(S(C)(=O)=O)C3)n2)c2cccnc2c1 [Example 310, [3-{4-[7-(1-methyl-1H-pyrazol-5-yl)quinolin-5-yl]-2H-1,2,3-triazol-2-yl}-1-(methylsulfonyl)azetidin-3-yl]acetonitrile] | 725 | > 10000 | > 10 | > 10 |  |  |  | 
Cn1ccc(-c2cc(-c3cnn([C@]4(CC#N)C[C@@H](C#N)C4)n3)c3cccnc3c2)n1 [Example 312, trans-3-(cyanomethyl)-3-{4-[7-(1-methyl-1H-pyrazol-3-yl)quinolin-5-yl]-2H-1,2,3-triazol-2-yl}cyclobutanecarbonitrile] | 31 | 246 | > 10 | 1.64 |  |  |  | 
Cc1ncc(-c2cc3ncccc3c(-c3ccn(C4(CC#N)CN(S(C)(=O)=O)C4)n3)n2)cc1N [Example 217, [3-{3-[7-(5-amino-6-methylpyridin-3-yl)-1,6-naphthyridin-5-yl]-1H-pyrazol-1-yl}-1-(methylsulfonyl)azetidin-3-yl]acetonitrile] | 189 | 1620 | > 10 | 9.35 |  |  |  | 
N#CCC1(n2ccc(-c3nc(-c4ccc(O)nc4)cc4ncccc34)n2)CN(C2CC(F)(F)C2)C1 [Example 185, [1-(3,3-difluorocyclobutyl)-3-{3-[7-(6-hydroxypyridin-3-yl)-1,6-naphthyridin-5-yl]-1H-pyrazol-1-yl}azetidin-3-yl]acetonitrile] | 88 | 2070 | > 10 | 2.03 |  |  |  | 
N#CC[C@]1(n2ncc(-c3cc(-c4cc(C(N)=O)c(F)cn4)cc4ncccc34)n2)C[C@H](C#N)C1 [Example 385, 2-(5-{2-[cis-3-cyano-1-(cyanomethyl)cyclobutyl]-2H-1,2,3-triazol-4-yl}quinolin-7-yl)5-fluoropyridine-4-carboxamide] |  |  |  |  | 984 | 6780 | > 10 | 6.27
CC(=O)N1CC2(C1)CC(CC#N)(n1ccc(-c3nc(-c4cc[nH]n4)cc4ncccc34)n1)C2 [Example 38, (2-acetyl-6-{3-[7-(1H-pyrazol-3-yl)-1,6-naphthyridin-5-yl]-1H-pyrazol-1-yl}-2-azaspiro[3.3]hept-6-yl)acetonitrile] | 4020 | 5630 | > 10 | > 10 |  |  |  | 
CC(=O)Nc1cc(-c2cc3ncccc3c(-c3ccn(C4(CC#N)CN(S(C)(=O)=O)C4)n3)n2)cnc1C [Example 228, N-[5-(5-{1-[3-(cyanomethyl)-1-(methylsulfonyl)azetidin-3-yl]-1H-pyrazol-3-yl}-1,6-naphthyridin-7-yl)-2-methylpyridin-3-yl]acetamide] | 704 | 6630 | > 10 | 4.35 |  |  |  | 
N#CCC1(n2ccc(-c3nc(Cl)cc4ncccc34)n2)CN(CC(F)(F)F)C1 [Example 14, {3-[3-(7-chloro-1,6-naphthyridin-5-yl)-1H-pyrazol-1-yl]-1-(2,2,2-trifluoroethyl)azetidin-3-yl}acetonitrile] | 1470 | > 10000 | > 10 | 8.96 |  |  |  | 
CS(=O)(=O)Nc1cccc(-c2cc(-c3cnn(C4(CC#N)CC(C#N)C4)n3)c3cccnc3c2)n1 (stereo not drawn) [Example 373, N-[6-(5-{2-[trans-3-cyano-1-(cyanomethyl)cyclobutyl]-2H-1,2,3-triazol-4-yl}quinolin-7-yl)pyridin-2-yl]methanesulfonamide] |  |  |  |  | 69 | 411 | > 10 | 4.07
CO[C@H]1C[C@@](CC#N)(n2cc(-c3cc(-c4cnn(C)c4)cc4nccn34)cn2)C1 [Example 460, (cis-3-methoxy-1-{4-[7-(1-methyl-1H-pyrazol-4-yl)imidazo[1,2-a]pyridin-5-yl]-1H-pyrazol-1-yl}cyclobutyl)acetonitrile] |  |  |  |  | 395 | 5360 | > 10 | > 10
CS(=O)(=O)N1CC(CC#N)(n2ccc(-c3nc(-c4ccccc4F)cc4ncccc34)n2)C1 [Example 258, [3-{3-[7-(2-fluorophenyl)-1,6-naphthyridin-5-yl]-1H-pyrazol-1-yl}-1-(methylsulfonyl)azetidin-3-yl]acetonitrile] | 255 | > 10000 | > 10 | > 10 |  |  |  | 
CC(C)(O)[C@H]1C[C@@](CC#N)(n2ccc(-c3nc(-c4cc[nH]n4)cc4ncccc34)n2)C1 [Example 40, [cis-3-(2-hydroxpropan-2-yl)-1-{3-[7-(1H-pyrazol-3-yl)-1,6-naphthyridin-5-yl]-1H-pyrazol-1-yl}cyclobutyl]acetonitrile] | 730 | 4590 | > 10 | 7.3 |  |  |  | 
N#CC[C@]1(n2ncc(-c3cc(-c4cn[nH]c4N)cc4ncccc34)n2)C[C@@H](C#N)C1 [Example 320, cis-3-{4-[7-(5-amino-1H-pyrazol-4-yl)quinolin-5-yl]-2H-1,2,3-triazol-2-yl}-3-(cyanomethyl)cyclobutanecarbonitrile] | 5 | 77 | 8.03 | 0.256 |  |  |  | 
CCN1CC(CC#N)(n2ccc(-c3nc(-c4ccc(O)nc4)cc4ncccc34)n2)C1 [Example 184] | 221 | 4030 | > 10 | 4.03 |  |  |  | 
